Measurements taken from PubChem BioAssay AID330 (DTP/NCI, 2004).
Several values for one entry are separate records, joined by “and”; a condition that tells them apart may be missing. Equal values may be shown once. Inconclusive results and toxic doses are left out. The calls were made as follows: active = survival T/C of 150% or more; inactive = T/C below 125% in these data.

Test system: P388 leukemia ip, CD2F1 mice, survival T/C
Experiment: NCI In Vivo Anticancer Drug Screen. Data for tumor model P388 Leukemia (intraperitoneal) in CD2F1 (CDF1) mice
Settings: endpoint: median survival time, higher = longer survival
Summary of the method: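 Mice carrying the transplanted tumor received test compound or vehicle. Survival was recorded in each group, and the value is the treated-group measurement divided by that of the vehicle-treated control group.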

[1] = dose: 25.0 mg/kg/injection, schedule: Q01DX005 (ip), vehicle: Klucel (hydroxypropylcellulose) (HPC)
[2] = dose: 50.0 mg/kg/injection, schedule: Q01DX005 (ip), vehicle: Klucel (hydroxypropylcellulose) (HPC)
[3] = dose: 100.0 mg/kg/injection, schedule: Q01DX005 (ip), vehicle: Klucel (hydroxypropylcellulose) (HPC)
[4] = dose: 200.0 mg/kg/injection, schedule: Q01DX005 (ip), vehicle: Klucel (hydroxypropylcellulose) (HPC)
[5] = dose: 50.0 mg/kg/injection, schedule: Q01DX009 (ip), vehicle: Klucel (hydroxypropylcellulose) (HPC)
[6] = dose: 100.0 mg/kg/injection, schedule: Q01DX009 (ip), vehicle: Klucel (hydroxypropylcellulose) (HPC)
[7] = dose: 200.0 mg/kg/injection, schedule: Q01DX009 (ip), vehicle: Klucel (hydroxypropylcellulose) (HPC)
[8] = dose: 50.0 mg/kg/injection, schedule: Q01DX005 (ip), vehicle: saline with Tween-80
[9] = dose: 100.0 mg/kg/injection, schedule: Q01DX005 (ip), vehicle: saline with Tween-80
[10] = dose: 200.0 mg/kg/injection, schedule: Q01DX005 (ip), vehicle: saline with Tween-80
[11] = dose: 50.0 mg/kg/injection, schedule: Q01DX009 (ip), vehicle: saline with Tween-80
[12] = dose: 100.0 mg/kg/injection, schedule: Q01DX009 (ip), vehicle: saline with Tween-80
[13] = dose: 200.0 mg/kg/injection, schedule: Q01DX009 (ip), vehicle: saline with Tween-80

Measured: T/C

CC1(C)N=C(N)N=C(N)N1c1cccc(C(=O)O)c1
inactive: [1] 117 % of control | [2] 100 % of control | [3] 107 % of control

CC(NC(=O)OCC1c2ccccc2-c2ccccc21)C(=O)O (stereo not drawn)
inactive: [2] 103 % of control | [3] 98 % of control | [4] 96 % of control

O=C1NC(=O)N2CC(CI)OC2C1c1ccccc1 (stereo not drawn)
inactive: [5] 103 % of control | [6] 98 % of control | [7] 100 % of control

COC(=O)N1c2ccccc2SC1C#N (stereo not drawn)
inactive: dose: 60.0 mg/kg/injection, schedule: Q01DX005 (ip), vehicle: saline with Tween-80 96 % of control | dose: 120.0 mg/kg/injection, schedule: Q01DX005 (ip), vehicle: saline with Tween-80 112 % of control | dose: 240.0 mg/kg/injection, schedule: Q01DX005 (ip), vehicle: saline with Tween-80 106 % of control

CCC(=O)c1cc(-c2cc(C(=O)CC)[nH]n2)n[nH]1
inactive: dose: 60.0 mg/kg/injection, schedule: Q01DX005 (ip), vehicle: Klucel (hydroxypropylcellulose) (HPC) 98 % of control | dose: 120.0 mg/kg/injection, schedule: Q01DX005 (ip), vehicle: Klucel (hydroxypropylcellulose) (HPC) 98 % of control

CCOC(=O)NNC1=C(CC(=O)c2ccccc2)C(=O)CC(C)(C)C1
inactive: [5] 101 % of control | [6] 102 % of control | [7] 109 % of control

O=C(/C=C/c1ccco1)c1ccc(Cl)cc1
inactive: dose: 50.0 mg/kg/injection, schedule: Q01DX001 (ip), vehicle: saline sonified 100 % of control | dose: 100.0 mg/kg/injection, schedule: Q01DX001 (ip), vehicle: saline sonified 95 % of control | dose: 200.0 mg/kg/injection, schedule: Q01DX001 (ip), vehicle: saline sonified 100 % of control

O=C(CCc1ccccc1C(=O)O)c1ccccc1O
inactive: [8] 94 % of control | [9] 105 % of control | [10] 93 % of control

CCCCc1c(O)nc2nc(-c3ccccc3)c(-c3ccccc3)nn2c1=O
inactive: dose: 3.12 mg/kg/injection, schedule: Q01DX005 (ip), vehicle: Klucel (hydroxypropylcellulose) (HPC) 107 % of control | dose: 6.25 mg/kg/injection, schedule: Q01DX005 (ip), vehicle: Klucel (hydroxypropylcellulose) (HPC) 103 % of control | dose: 12.5 mg/kg/injection, schedule: Q01DX005 (ip), vehicle: Klucel (hydroxypropylcellulose) (HPC) 94 % of control

O=C(O)c1c(-c2ccccc2)cnc2ccccc12
inactive: [11] 95 % of control | [12] 89 % of control | [13] 97 % of control

O=C(O)C(S(=O)(=O)O)S(=O)(=O)O
inactive: dose: 1.56 mg/kg/injection, schedule: Q01DX001 (ip), vehicle: saline with Tween-80 103 % of control | dose: 3.13 mg/kg/injection, schedule: Q01DX001 (ip), vehicle: saline with Tween-80 100 % of control | dose: 6.25 mg/kg/injection, schedule: Q01DX001 (ip), vehicle: saline with Tween-80 100 % of control

Cc1ncc(-c2ccccc2)c(N)n1
inactive: dose: 50.0 mg/kg/injection, schedule: Q01DX009 (ip), vehicle: saline 91 % of control | dose: 100.0 mg/kg/injection, schedule: Q01DX009 (ip), vehicle: saline 92 % of control | dose: 200.0 mg/kg/injection, schedule: Q01DX009 (ip), vehicle: saline 102 % of control

CCCCCCCCNC1c2ccccc2CCC1O (stereo not drawn)
inactive: [1] 97 % of control | [2] 94 % of control | [3] 97 % of control

COc1ccc(C(c2cc(C(C)(C)C)cc(C(C)(C)C)c2O)N2CCCCC2)cc1 (stereo not drawn)
inactive: dose: 50.0 mg/kg/injection, schedule: Q01DX005 (ip), vehicle: distilled water + alcohol 97 % of control | dose: 100.0 mg/kg/injection, schedule: Q01DX005 (ip), vehicle: distilled water + alcohol 100 % of control | dose: 200.0 mg/kg/injection, schedule: Q01DX005 (ip), vehicle: distilled water + alcohol 99 % of control

O=C1CCC([N+](=O)[O-])([N+](=O)[O-])CO1
inactive: dose: 100.0 mg/kg/injection, schedule: Q01DX001 (ip), vehicle: saline with Tween-80 111 % of control | dose: 200.0 mg/kg/injection, schedule: Q01DX001 (ip), vehicle: saline with Tween-80 106 % of control | dose: 400.0 mg/kg/injection, schedule: Q01DX001 (ip), vehicle: saline with Tween-80 113 % of control

CCN(CC)C(=O)c1cc2c(=O)c3c(ccc4ccccc43)oc2n(C)c1=O
inactive: [8] 98 % of control | [9] 90 % of control | [10] 90 % of control

CNc1ccc(CN2CCCCC2)cc1C
inactive: dose: 0.93 mg/kg/injection, schedule: Q01DX005 (ip), vehicle: Klucel (hydroxypropylcellulose) (HPC) 100 % of control and 92 % of control | dose: 1.87 mg/kg/injection, schedule: Q01DX005 (ip), vehicle: Klucel (hydroxypropylcellulose) (HPC) 100 % of control and 97 % of control | dose: 3.75 mg/kg/injection, schedule: Q01DX005 (ip), vehicle: Klucel (hydroxypropylcellulose) (HPC) 99 % of control and 95 % of control and 96 % of control

O=[N+]([O-])c1ccc(N=Nc2c(-c3ccccc3)nn(C(=S)S)c2-c2ccccc2)cc1
inactive: dose: 100.0 mg/kg/injection, schedule: Q04DX002 (ip), vehicle: saline with Tween-80 92 % of control | dose: 200.0 mg/kg/injection, schedule: Q04DX002 (ip), vehicle: saline with Tween-80 97 % of control | dose: 400.0 mg/kg/injection, schedule: Q04DX002 (ip), vehicle: saline with Tween-80 101 % of control

Oc1cc2c(cc1-c1cc3c(cc1O)OCO3)OCO2
inactive: [1] 100 % of control | [2] 100 % of control | [3] 105 % of control | [4] 100 % of control

COc1cc(C(=O)Oc2c(OC)cc(C(=O)c3cc4c(cc3C)OCO4)cc2OC)cc(OC)c1OC
inactive: [2] 88 % of control | [3] 88 % of control

CC(C)(C)NSc1nc2ccccc2s1
inactive: dose: 12.5 mg/kg/injection, schedule: Q01DX009 (ip), vehicle: saline with Tween-80 109 % of control | dose: 12.5 mg/kg/injection, schedule: Q04DX003 (ip), vehicle: saline with Tween-80 100 % of control | dose: 25.0 mg/kg/injection, schedule: Q01DX009 (ip), vehicle: saline with Tween-80 100 % of control | dose: 25.0 mg/kg/injection, schedule: Q04DX003 (ip), vehicle: saline with Tween-80 95 % of control | [11] 100 % of control | dose: 50.0 mg/kg/injection, schedule: Q04DX003 (ip), vehicle: saline with Tween-80 100 % of control and 87 % of control

COc1ccc(CC2c3cc4c(cc3CCN2C)OCO4)c(/C=C\c2ccccc2)c1OC (stereo not drawn)
inactive: dose: 6.25 mg/kg/injection, schedule: Q01DX001 (ip), vehicle: saline + alcohol 92 % of control | dose: 12.5 mg/kg/injection, schedule: Q01DX001 (ip), vehicle: saline + alcohol 93 % of control | dose: 25.0 mg/kg/injection, schedule: Q01DX001 (ip), vehicle: saline + alcohol 90 % of control | dose: 200.0 mg/kg/injection, schedule: Q01DX001 (ip), vehicle: saline + alcohol 87 % of control

C=C1CC2(CC(C(C)C)CCC2C)OC1=O (stereo not drawn)
inactive: dose: 100.0 mg/kg/injection, schedule: Q01DX001 (ip), vehicle: saline 105 % of control | dose: 200.0 mg/kg/injection, schedule: Q01DX001 (ip), vehicle: saline 100 % of control | dose: 400.0 mg/kg/injection, schedule: Q01DX001 (ip), vehicle: saline 105 % of control

CCCCCCCCCCC(=O)CC
inactive: [12] 104 % of control | dose: 100.0 mg/kg/injection, schedule: Q04DX003 (ip), vehicle: saline with Tween-80 100 % of control | [13] 104 % of control | dose: 200.0 mg/kg/injection, schedule: Q04DX003 (ip), vehicle: saline with Tween-80 100 % of control | dose: 400.0 mg/kg/injection, schedule: Q01DX009 (ip), vehicle: saline with Tween-80 109 % of control | dose: 400.0 mg/kg/injection, schedule: Q04DX003 (ip), vehicle: saline with Tween-80 100 % of control

O=P(c1cccs1)(c1cccs1)c1cccs1
inactive: [5] 96 % of control | [6] 92 % of control | [7] 101 % of control

CCCCCCCCC(=O)CC
inactive: [12] 118 % of control | dose: 100.0 mg/kg/injection, schedule: Q04DX003 (ip), vehicle: saline 104 % of control | [13] 109 % of control | dose: 200.0 mg/kg/injection, schedule: Q04DX003 (ip), vehicle: saline 100 % of control | dose: 400.0 mg/kg/injection, schedule: Q04DX003 (ip), vehicle: saline 95 % of control

Cc1noc(NS(=O)(=O)c2ccc(N=c3c4ccccc4n(-c4ccccc4)c4ccccc34)cc2)c1C
inactive: [8] 97 % of control | [9] 100 % of control
